Active and inactive are the calls of the source.
How the values were obtained:
[1] = OVCAR-3 cell viability loss – plate reader, dry powder samples, PAX8 inhibitor project, dose response (AID 743044); type: functional, cell-based
[2] = OVCAR8 cell viability loss – plate reader, dry powder samples, PAX8 project, dose response (AID 743197); type: functional, cell-based; conditions: OVCAR-8
Paired box protein Pax-8 = Paired box protein Pax-8 (Homo sapiens, UniProt Q06710); assay: PAX8 transcriptional activity inhibition in RMG-I – RMG-I cells, luciferase, cherry-pick, dose response (AID 687027); type: functional, cell-based;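 further: luciferase reporter driven by Pax8 target thyroperoxidase promoter measured by SteadyGlo luminescence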
Steroidogenic factor 1 = Steroidogenic factor 1 (Homo sapiens, UniProt Q13285); assay: Counterscreen for inverse agonists of the liver receptor homolog-1 (LRH-1; NR5A2): Luminescence-based cell-based high throughput dose response assay to identify inverse agonists of the Steroidogenic Factor 1 Nuclear Receptor (SF1; NR5A1).; type: functional
[3] = biological target: T1, Long-chain-fatty-acid--AMP ligase FadD28 (Mycobacterium tuberculosis, UniProt P9WQ59); assay: Fluorescence polarization aasay to screen for inhibitors that compete for the binding of FadD28 to a bisubstrate Measured in Biochemical System Using Plate Reader - 2147-01_Inhibitor_Dose_CherryPick_Activity.; type: functional, Mycobacterium tuberculosis H37Rv
T1 sequence (P9WQ59 whole entry): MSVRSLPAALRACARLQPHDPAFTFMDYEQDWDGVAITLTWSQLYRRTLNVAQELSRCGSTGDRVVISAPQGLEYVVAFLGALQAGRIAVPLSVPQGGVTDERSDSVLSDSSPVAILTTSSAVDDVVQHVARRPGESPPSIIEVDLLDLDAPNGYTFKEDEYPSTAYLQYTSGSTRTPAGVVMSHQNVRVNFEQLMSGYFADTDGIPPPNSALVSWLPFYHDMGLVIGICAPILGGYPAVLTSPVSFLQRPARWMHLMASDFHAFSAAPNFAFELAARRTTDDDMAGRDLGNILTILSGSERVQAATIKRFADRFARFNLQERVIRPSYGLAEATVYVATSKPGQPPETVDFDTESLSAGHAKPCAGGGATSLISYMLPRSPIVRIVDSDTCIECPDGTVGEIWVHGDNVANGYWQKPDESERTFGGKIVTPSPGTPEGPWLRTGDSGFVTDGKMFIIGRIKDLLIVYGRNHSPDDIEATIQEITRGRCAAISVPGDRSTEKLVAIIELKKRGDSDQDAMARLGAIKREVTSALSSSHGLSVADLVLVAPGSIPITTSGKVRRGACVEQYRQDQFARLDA

[4] = Trypanosoma cruzi growth suppression in host cells – NIH3T3 host cells, beta-gal luminescence, confirmation (AID 2044); type: functional, cell-based;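 further: intracellular parasites grown in NIH/3T3 mouse fibroblasts as host cells; luminescent beta-galactosidase reporter signal from transgenic T. cruzi replicating inside host cells; inhibitors lower the luminescence signal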
[5] = biological target: Nuclear receptor subfamily 5 group A member 2 (Homo sapiens, UniProt O00482); type: functional, cell-based;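 further: HEK293T cells transfected with LRH-1 and a StAR promoter luciferase reporter; potency for inhibitors that lower LRH-1 driven reporter light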
[6] = NIH3T3 cell viability loss – ATP luminescence, mouse fibroblasts, counter-screen, dose response (AID 2010); type: functional, cell-based;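 further: cells exposed to compound for about 90 hours before reading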
[7] = nonselective StAR promoter luciferase inhibitors – cell-based, luminescence, luciferase reporter, counter-screen for LRH-1 inverse agonist project, dose response (AID 651969); type: functional
[8] = biological target: T2, Sentrin-specific protease 1 (Homo sapiens, UniProt Q9P0U3); assay: SENP1 catalytic domain blockers, concentration series – biochemical, kinetic FRET, dose response (AID 651697); type: functional; conditions: read-out: IC50_Mean
T2 sequence (Q9P0U3 whole entry): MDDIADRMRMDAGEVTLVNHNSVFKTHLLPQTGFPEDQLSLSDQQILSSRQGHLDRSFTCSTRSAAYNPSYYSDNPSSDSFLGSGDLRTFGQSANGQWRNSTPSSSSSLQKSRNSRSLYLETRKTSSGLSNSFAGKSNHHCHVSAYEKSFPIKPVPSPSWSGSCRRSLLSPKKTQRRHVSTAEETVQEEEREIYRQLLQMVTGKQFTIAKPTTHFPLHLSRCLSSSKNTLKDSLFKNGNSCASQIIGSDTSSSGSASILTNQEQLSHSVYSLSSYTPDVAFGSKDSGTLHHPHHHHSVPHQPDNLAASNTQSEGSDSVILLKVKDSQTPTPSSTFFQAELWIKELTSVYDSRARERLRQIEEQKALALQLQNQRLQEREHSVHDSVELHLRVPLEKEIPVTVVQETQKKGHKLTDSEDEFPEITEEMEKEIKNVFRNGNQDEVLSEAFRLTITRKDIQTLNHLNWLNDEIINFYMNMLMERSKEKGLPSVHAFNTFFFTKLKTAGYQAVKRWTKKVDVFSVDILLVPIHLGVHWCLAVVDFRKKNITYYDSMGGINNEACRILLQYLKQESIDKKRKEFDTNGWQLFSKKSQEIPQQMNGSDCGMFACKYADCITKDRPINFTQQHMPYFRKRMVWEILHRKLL

[9] = biological target: T2, Sentrin-specific protease 1; assay: Dose response confirmation of small molecule inhibitors of the catalytic domain of the SUMO protease, SENP1 in a FRET assay.; type: functional; conditions: read-out: IC50_Mean
Beta-galactosidase = Beta-galactosidase (Escherichia coli, UniProt Q8VNN2); assay: Dose response counterscreen for EBI2 assay utilizing the enzyme, b-galactosidase.; type: functional
[10] = activation of miR-122 Renilla sensor silencing – cell-based, Huh7 psiCHECK-miR122, Renilla luciferase, cherry-picked, dose response (AID 651956); type: functional;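 further: huh7 hepatoma cells stably carrying a psiCHECK-2 miR-122 sensor plasmid; renilla luciferase signal reporting endogenous miR-122 activity after 48 h compound exposure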
[11] = biological target: T3, Methionyl-tRNA synthetase, putative (Trypanosoma brucei brucei, UniProt Q38C91); type: functional, Trypanosoma brucei brucei strain 927/4 GUTat10.1
T3 sequence (Q38C91 whole entry): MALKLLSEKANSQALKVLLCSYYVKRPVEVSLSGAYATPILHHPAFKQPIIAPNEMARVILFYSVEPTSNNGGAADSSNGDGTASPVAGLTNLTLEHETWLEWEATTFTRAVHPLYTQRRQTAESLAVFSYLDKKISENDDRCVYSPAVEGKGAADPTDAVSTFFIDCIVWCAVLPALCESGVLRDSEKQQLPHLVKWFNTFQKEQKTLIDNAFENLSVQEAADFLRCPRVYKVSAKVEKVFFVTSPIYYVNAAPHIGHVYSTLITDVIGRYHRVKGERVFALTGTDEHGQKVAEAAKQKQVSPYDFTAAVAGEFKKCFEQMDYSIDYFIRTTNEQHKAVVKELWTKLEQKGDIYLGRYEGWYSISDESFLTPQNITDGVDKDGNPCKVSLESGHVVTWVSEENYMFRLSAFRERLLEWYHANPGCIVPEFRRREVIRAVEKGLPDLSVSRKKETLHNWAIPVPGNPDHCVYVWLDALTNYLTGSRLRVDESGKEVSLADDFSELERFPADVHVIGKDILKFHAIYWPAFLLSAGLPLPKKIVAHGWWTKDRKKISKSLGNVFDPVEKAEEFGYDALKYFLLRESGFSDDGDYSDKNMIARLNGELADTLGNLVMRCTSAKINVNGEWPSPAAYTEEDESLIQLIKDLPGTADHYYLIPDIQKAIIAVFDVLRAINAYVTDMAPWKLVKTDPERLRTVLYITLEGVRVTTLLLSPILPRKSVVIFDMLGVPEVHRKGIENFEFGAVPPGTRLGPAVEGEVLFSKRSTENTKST

[12] = Counterscreen for inhibitors of Trypanosoma brucei methionyl tRNA synthetase (MetRS): Luminescence-based cell-based high throughput dose response assay to identify compounds that are cytotoxic to Jurkat human T lymphocyte cells.; type: functional
[13] = biological target: T3, Methionyl-tRNA synthetase, putative; type: functional, Trypanosoma brucei brucei strain 927/4 GUTat10.1; remark: listed apart in the source
[14] = biological target: T4, Zinc finger protein mex-5 (Caenorhabditis elegans, UniProt Q9XUB2); assay: potency of MEX-5 RNA-binding blockers – biochemical, C. elegans, fluorescence polarization, dose response (AID 1960)
T4 sequence (Q9XUB2 whole entry): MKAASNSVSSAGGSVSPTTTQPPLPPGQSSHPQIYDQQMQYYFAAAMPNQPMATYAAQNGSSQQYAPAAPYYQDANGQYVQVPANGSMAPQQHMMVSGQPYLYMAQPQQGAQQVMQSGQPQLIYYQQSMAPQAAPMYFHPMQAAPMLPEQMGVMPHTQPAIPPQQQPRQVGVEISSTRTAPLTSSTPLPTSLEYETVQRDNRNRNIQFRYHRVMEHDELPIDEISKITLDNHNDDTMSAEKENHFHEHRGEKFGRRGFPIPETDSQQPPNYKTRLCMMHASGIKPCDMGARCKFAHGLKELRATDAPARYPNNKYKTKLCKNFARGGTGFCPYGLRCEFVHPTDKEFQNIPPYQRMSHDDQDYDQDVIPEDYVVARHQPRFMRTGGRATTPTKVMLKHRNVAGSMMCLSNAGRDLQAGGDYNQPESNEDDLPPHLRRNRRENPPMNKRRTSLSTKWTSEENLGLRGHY

[15] = biological target: T5, RNA-binding protein pos-1 (Caenorhabditis elegans, UniProt G5EF15); assay: disruptors of C. elegans POS-1 RNA interaction – biochemical, fluorescence polarization, dose response (AID 1964);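 further: purified POS-1 fused to maltose binding protein made in E. coli; potency of compounds blocking POS-1 binding to fluorescent RNA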
T5 sequence (G5EF15 whole entry): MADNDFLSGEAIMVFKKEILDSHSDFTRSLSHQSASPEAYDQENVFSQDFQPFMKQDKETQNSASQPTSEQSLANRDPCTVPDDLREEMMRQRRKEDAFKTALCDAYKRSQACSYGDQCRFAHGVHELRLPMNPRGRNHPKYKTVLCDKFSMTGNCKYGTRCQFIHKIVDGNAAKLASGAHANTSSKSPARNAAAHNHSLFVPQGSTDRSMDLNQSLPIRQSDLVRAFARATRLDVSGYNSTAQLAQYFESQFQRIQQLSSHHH

Fatty acid synthase [16] = biological target: T6, Fatty acid synthase (Homo sapiens, UniProt P49327); assay: inhibition of human FAS-TE enzyme activity – biochemical, kinetic fluorescence intensity, dose response (AID 624326); type: functional;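 further: rate of fluorescence rise from hydrolysis of a fluorogenic O-methyl fluorescein ester substrate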
Fatty acid synthase [17] = biological target: T6, Fatty acid synthase; assay: inhibition of human FAS-TE enzyme activity – biochemical, endpoint fluorescence intensity, uHTS hits, dose response (AID 624327); type: functional;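 further: fluorescence from hydrolysis of an O-methyl fluorescein acyl ester substrate by the enzyme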
[18] = biological target: Photoreceptor-specific nuclear receptor (Homo sapiens, UniProt Q9Y5X4); type: functional, cell-based;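 further: CHO-S cells with Gal4-NCOR and VP16-NR2E3 two-hybrid luciferase reporter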
[19] = biological target: T7, Carboxy-terminal domain RNA polymerase II polypeptide A small phosphatase 1 (Homo sapiens, UniProt Q9GZU7); assay: CTDSP1 inhibitors, concentration-response, biochemical, absorbance readout, ultra-high-throughput screen actives (AID 540297); type: functional
T7 sequence (Q9GZU7 whole entry): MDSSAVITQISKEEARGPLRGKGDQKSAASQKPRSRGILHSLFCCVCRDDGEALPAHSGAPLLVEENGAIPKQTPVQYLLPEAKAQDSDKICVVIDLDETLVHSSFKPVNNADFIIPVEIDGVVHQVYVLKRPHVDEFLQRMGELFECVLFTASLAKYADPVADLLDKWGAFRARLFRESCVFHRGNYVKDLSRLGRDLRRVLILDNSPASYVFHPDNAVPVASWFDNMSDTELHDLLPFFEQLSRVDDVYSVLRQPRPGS

[20] = biological target: T8, Low molecular weight phosphotyrosine protein phosphatase (Homo sapiens, UniProt P24666); type: functional; conditions: read-out: IC50_Mean
T8 sequence (P24666 whole entry): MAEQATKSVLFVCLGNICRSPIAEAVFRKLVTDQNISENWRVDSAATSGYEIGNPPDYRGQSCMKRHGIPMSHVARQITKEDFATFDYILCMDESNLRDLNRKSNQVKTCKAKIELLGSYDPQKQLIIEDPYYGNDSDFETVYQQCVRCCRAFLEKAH

[21] = biological target: T8, Low molecular weight phosphotyrosine protein phosphatase; type: functional; conditions: read-out: IC50_Mean; remark: listed apart in the source

Nuclear receptor subfamily 5 group A member 2, sequence (O00482 whole entry): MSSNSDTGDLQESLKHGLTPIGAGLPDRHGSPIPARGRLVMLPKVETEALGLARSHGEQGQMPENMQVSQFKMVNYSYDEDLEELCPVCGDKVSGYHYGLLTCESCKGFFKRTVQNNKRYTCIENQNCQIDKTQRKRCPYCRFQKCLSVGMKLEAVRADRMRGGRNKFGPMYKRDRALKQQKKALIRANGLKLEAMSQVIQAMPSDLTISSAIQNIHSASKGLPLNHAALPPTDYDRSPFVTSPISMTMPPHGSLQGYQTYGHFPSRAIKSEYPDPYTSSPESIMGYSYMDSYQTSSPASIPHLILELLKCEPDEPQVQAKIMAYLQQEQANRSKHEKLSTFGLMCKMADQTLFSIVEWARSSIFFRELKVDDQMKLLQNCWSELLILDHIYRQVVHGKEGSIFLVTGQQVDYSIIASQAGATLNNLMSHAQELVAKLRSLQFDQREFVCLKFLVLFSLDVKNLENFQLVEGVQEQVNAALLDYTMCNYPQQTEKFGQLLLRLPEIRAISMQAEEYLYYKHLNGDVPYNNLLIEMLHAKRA
Steroidogenic factor 1, sequence (Q13285 whole entry): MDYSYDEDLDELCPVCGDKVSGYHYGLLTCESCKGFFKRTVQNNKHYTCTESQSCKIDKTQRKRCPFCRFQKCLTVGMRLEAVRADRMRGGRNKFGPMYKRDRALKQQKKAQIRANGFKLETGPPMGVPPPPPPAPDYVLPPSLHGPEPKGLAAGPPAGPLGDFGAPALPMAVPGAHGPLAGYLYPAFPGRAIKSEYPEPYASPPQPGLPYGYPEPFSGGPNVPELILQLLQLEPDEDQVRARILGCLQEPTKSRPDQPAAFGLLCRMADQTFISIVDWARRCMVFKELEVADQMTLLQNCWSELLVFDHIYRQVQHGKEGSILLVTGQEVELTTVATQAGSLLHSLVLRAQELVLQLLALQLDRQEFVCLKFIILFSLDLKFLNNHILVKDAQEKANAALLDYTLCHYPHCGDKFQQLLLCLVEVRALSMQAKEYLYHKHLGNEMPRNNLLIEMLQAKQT
Beta-galactosidase, sequence (Q8VNN2 whole entry): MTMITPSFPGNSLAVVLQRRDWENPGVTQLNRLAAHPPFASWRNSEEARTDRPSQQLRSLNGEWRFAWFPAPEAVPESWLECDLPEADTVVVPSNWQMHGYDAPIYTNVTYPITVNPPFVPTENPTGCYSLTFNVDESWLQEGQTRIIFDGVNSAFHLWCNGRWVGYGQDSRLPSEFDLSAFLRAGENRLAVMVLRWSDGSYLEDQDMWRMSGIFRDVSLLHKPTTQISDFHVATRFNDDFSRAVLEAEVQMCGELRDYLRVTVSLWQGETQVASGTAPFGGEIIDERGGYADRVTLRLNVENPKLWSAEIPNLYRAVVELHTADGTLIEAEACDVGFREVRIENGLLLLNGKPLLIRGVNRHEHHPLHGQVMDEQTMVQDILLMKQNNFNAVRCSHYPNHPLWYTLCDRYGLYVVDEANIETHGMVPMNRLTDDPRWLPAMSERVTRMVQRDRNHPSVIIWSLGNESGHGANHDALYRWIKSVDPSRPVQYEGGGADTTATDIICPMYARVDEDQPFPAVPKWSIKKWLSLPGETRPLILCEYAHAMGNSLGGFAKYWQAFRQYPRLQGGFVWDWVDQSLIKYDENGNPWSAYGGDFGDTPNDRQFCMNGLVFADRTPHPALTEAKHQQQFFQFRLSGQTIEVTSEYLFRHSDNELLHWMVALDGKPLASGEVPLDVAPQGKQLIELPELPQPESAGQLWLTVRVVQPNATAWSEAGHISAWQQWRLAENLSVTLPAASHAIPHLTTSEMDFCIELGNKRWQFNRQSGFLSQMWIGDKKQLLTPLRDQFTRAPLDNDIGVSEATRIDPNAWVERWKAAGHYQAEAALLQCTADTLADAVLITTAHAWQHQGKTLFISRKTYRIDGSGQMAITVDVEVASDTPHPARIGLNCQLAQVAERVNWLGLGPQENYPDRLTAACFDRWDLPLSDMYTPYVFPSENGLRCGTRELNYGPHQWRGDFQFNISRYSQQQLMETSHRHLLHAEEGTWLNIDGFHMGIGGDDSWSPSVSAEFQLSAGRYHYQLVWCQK
T6 sequence (P49327 whole entry): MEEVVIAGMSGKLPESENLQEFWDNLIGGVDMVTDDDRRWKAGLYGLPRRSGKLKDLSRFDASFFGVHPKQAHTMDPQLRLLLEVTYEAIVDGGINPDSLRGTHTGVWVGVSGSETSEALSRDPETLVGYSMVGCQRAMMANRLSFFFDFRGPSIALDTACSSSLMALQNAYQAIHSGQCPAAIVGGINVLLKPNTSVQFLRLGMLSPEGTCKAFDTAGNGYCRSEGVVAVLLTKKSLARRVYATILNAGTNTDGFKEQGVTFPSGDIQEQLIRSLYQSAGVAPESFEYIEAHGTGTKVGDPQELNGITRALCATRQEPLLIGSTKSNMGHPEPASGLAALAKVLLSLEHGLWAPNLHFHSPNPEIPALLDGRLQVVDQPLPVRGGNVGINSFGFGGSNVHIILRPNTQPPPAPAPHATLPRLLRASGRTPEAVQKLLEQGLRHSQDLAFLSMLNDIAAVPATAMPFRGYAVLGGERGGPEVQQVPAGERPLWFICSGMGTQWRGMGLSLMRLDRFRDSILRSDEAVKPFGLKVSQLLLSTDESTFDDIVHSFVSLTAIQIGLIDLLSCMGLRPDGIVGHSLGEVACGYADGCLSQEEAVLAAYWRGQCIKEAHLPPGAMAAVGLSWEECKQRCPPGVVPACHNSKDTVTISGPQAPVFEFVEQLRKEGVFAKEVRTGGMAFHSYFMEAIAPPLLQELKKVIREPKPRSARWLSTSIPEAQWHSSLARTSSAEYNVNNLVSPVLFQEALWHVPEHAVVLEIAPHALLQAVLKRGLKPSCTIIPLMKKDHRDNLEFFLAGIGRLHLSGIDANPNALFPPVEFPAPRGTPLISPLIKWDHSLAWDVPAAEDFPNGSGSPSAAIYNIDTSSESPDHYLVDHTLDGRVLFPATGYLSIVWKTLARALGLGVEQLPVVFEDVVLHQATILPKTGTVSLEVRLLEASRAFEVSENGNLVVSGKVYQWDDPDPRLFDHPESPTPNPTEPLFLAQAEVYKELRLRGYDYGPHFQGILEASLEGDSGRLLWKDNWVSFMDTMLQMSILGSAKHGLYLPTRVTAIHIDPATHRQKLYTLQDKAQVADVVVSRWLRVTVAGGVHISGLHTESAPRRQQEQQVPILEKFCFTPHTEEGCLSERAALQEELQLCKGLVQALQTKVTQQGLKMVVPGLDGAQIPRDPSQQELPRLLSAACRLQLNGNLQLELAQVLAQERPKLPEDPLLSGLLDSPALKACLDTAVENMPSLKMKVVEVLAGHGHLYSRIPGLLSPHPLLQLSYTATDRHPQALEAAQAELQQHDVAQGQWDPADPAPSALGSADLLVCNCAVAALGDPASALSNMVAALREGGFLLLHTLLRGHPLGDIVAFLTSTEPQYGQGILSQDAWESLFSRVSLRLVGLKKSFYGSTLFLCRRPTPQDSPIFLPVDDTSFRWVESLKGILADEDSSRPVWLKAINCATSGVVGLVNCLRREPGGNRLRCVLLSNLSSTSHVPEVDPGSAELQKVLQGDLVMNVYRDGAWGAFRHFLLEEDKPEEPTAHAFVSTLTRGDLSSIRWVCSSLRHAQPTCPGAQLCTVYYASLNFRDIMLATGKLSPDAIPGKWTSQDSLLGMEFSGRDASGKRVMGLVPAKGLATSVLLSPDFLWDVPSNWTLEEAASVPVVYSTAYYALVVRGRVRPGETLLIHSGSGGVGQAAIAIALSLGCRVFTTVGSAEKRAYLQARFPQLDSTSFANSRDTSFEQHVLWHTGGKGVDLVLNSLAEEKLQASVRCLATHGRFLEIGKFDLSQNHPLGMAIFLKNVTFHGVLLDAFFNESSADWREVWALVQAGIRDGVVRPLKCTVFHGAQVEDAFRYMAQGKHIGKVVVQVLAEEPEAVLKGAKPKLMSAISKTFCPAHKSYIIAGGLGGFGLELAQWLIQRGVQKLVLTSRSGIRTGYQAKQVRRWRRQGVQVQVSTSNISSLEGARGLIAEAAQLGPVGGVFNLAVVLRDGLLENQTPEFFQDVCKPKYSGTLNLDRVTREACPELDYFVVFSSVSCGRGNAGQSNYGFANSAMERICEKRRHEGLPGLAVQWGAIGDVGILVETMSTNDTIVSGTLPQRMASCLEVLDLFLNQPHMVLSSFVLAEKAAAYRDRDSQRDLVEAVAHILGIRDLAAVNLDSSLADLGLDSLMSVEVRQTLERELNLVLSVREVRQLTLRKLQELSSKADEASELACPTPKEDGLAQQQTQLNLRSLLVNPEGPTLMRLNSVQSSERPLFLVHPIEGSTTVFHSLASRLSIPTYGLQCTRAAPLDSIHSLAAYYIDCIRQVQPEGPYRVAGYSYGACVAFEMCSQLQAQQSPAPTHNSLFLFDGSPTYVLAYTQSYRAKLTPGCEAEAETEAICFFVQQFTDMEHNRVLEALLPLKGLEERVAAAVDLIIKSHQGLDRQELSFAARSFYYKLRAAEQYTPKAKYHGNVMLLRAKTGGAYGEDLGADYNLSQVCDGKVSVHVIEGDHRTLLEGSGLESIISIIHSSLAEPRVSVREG
Paired box protein Pax-8, sequence (Q06710 whole entry): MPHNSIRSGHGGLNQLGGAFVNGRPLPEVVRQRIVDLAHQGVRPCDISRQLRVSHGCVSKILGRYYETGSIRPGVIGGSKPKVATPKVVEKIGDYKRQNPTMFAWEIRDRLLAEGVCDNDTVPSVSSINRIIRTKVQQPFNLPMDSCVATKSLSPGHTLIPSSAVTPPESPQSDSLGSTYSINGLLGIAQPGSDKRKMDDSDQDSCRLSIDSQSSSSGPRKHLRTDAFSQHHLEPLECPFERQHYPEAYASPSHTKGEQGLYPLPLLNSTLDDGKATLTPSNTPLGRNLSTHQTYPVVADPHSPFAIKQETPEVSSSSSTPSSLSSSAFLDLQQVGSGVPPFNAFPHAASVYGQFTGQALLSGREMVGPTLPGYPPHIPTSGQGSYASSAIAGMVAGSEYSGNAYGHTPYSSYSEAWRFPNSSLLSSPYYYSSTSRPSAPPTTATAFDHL

C[C@@H]1CCCCO[C@@H](CN(C)C(=O)Nc2ccc(C(F)(F)F)cc2)[C@H](C)CN([C@H](C)CO)C(=O)c2cc(NS(=O)(=O)c3ccc(F)cc3)ccc2O1
AC50 [1]: 23.5 µM (active) | AC50 [2]: > 70 µM (inactive) | AC50 (Paired box protein Pax-8): 5.62 µM (active)

COC(=O)c1ccc(COc2ccc(/C=N/NC(N)=S)cc2)o1
IC50 (Steroidogenic factor 1): 1.97 µM (active) | AC50 [3]: 3.63 µM (active) | EC50 [4]: 1.39 µM (active) | IC50 [5]: 9.77 µM (active) | EC50 [6]: > 60 µM (not active) | IC50 [7]: 35.9 µM (inactive)

Cc1cc(C)n2c(Nc3c(C)cccc3C)c(-c3cccnc3)nc2n1
IC50 [8]: 28.3 µM (inactive) | IC50 [9]: 16.8 µM (active)

O=C(CN1C(=O)CCC1=O)Nc1ccc(Br)cc1
IC50 (Steroidogenic factor 1): 8.78 µM (active) | IC50 [5]: 11.1 µM (inactive) | IC50 [7]: 35.9 µM (inactive)

COc1cc(OC)cc(C(=O)N2CCN(C(=O)COc3ccc4ccccc4c3)CC2)c1
IC50 (Beta-galactosidase): > 80 µM (inactive)

Cc1ccc(/C=C/C(=O)N2CCC(Cc3ccccc3)CC2)cc1
IC50 (Beta-galactosidase): > 80 µM (inactive)

O=[N+]([O-])c1cc(F)c(N2CCCCCC2)cc1N1CCNCC1
IC50 (Steroidogenic factor 1): 6.27 µM (active) | IC50 [5]: 3.99 µM (active) | IC50 [7]: 35 µM (inactive)

C[C@@H]1CN([C@@H](C)CO)S(=O)(=O)c2ccc(C#CC3(O)CCCC3)cc2O[C@@H]1CN(C)C(=O)c1cccnc1
AC50 [10]: 7.95 µM (active)

O=C(CSc1n[nH]c2c3cc(F)ccc3nc-2n1)NCc1ccc(F)cc1
IC50 [11]: 119 µM (inactive) | IC50 [12]: 83.3 µM (inactive) | IC50 [13]: 1.42 µM (active)

Cc1ccc2cc(/C=C(\C#N)C(N)=O)c(N3CCCCC3)nc2c1
EC50 [14]: 30.7 µM (inconclusive) | IC50 [8]: 18.4 µM (active) | EC50 [15]: 50.6 µM (active) | IC50 [9]: 36.2 µM (inactive)

CCCCCCCCCCCCN1[C@@H](CC(=O)O)c2cc(F)ccc2S1(=O)=O
IC50 (Fatty acid synthase [16]): 2.62 µM (active) | IC50 (Fatty acid synthase [17]): 2.83 µM (active) | IC50 [18]: 4.28 µM (active)

O=C(CSc1nc(-c2ccccc2)nc2ccc(F)cc12)Nc1cccc(C(=O)O)c1
IC50 [19]: 6.6 µM (active) | IC50 [20]: 21.4 µM (inactive) | IC50 [21]: 42.2 µM (inactive)

Cc1ccc(C)c(OCCC(=O)Nc2cccc(S(=O)(=O)NC3=NCCCCC3)c2)c1
IC50 [11]: 98.3 µM (inactive) | IC50 [12]: 83.3 µM (inactive) | IC50 [13]: 46.4 µM (inactive)

CN(C)C(=O)CSc1ccc(S(=O)(=O)N2CCCC2)cn1
IC50 [8]: 12.9 µM (active) | IC50 [9]: 20.7 µM (inactive)

CCC(C)N1CCN(C(=O)COc2ccc3ccccc3c2)CC1 (centres undefined)
IC50 (Beta-galactosidase): > 80 µM (inactive)

From ChEMBL document CHEMBL1201862, “PubChem BioAssay data set” (2004)
